The target in the experiment is T1, HIV-1 protease (Human immunodeficiency virus type 1 group M subtype B, UniProt P04585).
T1 construct: 2.6 nM of HIV-1 protease
Briefly: Assay for inhibitory effect on HIV protease (residual enzyme activity, HPLC of substrate cleavage). The class given is biochemical. The note with it: pH 5.5; for Ki / kinact: HIV-1 protease 2.6 nM; for Ki: inhibition constant; for kinact: rate constant of covalent bond formation, read-out: kina (converted); for kinact/KI: second order rate constant, HIV-1 protease, read-out: kina /KI (converted). On the procedure: The inhibitory effect on HIV protease of the compounds of the present invention was determined by the following method.
To a buffer solution comprising 50 mM sodium acetate, pH 5.5, 1 mM dithiothreitol(DTT), 1 mM ethylenediaminetetraacetate (EDTA), 0.75M ammonium sulfate, 0.2M sodium chloride and 0.1% NP40(NONIDET P-40; Sigma Chemical Co., U.S.A.), were added various concentrations of a compound selected from Compound Nos. 1 to 92 to prepare a preincubation solution. Inhibition reaction was started with the addition of 2.6 nM of HIV-1 protease to the preincubation solution. Each 10 μl of the reaction solution was taken at a given time interval and added to 80 μl of assay solution containing 100 μM of reaction substrate in the same buffer solution as above to assay for the residual enzyme activity. In this context, an oligopeptide(KM =20 μM) consisting of 11 amino acids, i.e., Ser-Ile-Ala-Glu-(p-NO2)-Phe-Leu-Val-Arg-Ala-Lys-His, was used as a reaction substrate, which oligopeptide was to be cleaved in two by the breakage of amide bond between (P--NO2)-Phe and Leu upon the attack of HIV protease. The reaction rate was determined by subjecting the substrate before the reaction and the product after the reaction to HPLC separation and then measuring the relative amount of the product, using the strong absorbance of (p--NO2)-Phe at 280 nm. The amount of reduction in enzyme activity according to the elapsed time were measured and the natural logarithmic values(ln) of the measured amounts were plotted against time to obtain a linear graph and kobs was calculated from the slope of the linear graph.
The inhibition constant was calculated according to the following equation: [formula] wherein: kobs is a rate constant indicating the rate of reduction in enzyme activity according to the elapsed time under the presence of a given concentration of inhibitor,
kina is a rate constant indicating the rate of chemical reaction forming covalent bond between an enzyme and an inhibitor in Michaelis-Menten complex,
KI is an inhibition constant indicating the dissociation rate of Michaelis-Menten complex into an enzyme and an inhibitor, and
[I] means the inhibitor concentration.
The above equation is applicable to an experiment carried out under the condition in which the concentration of inhibitor is far higher than that of enzyme(Steady State Kinetic). […] The inhibition constants KI and kina and second order rate constant kina /KI were obtained by inputting the value of [E]/([E]+[EI]+[EI']) into KINSIM/FITSIM program. FIG. 1 exemplifies a result of the experiment determining the binding ratio of enzymes and inhibitors, which result was obtained by reacting the enzyme and the inhibitor in various concentration ratios for a sufficient time period(at least for 30 minutes), and then plotting the relative activity of the remaining enzyme against [conc. of inhibitor]/[conc. of enzyme].

The text below walks through data of patent publication US5744621A, “Irreversible HIV protease inhibitors, intermediates, compositions and processes for the preparation thereof” (Lucky Limited., priority 1992, dated 1998).

As a reminder, the Ki is the dissociation constant of the complex between target and ligand, obtained from inhibition or displacement. For `CC[C@H](C)[C@H](NC(=O)C[C@@H]1O[C@@H]1[C@H](Cc1ccccc1)NC(=O)[C@H](CC(N)=O)NC(=O)COc1ccccc1)C(=O)OC` [compound 4], the Ki was 60 nM, the kinact was 0.0015 s⁻¹ and the kinact/KI was 25000 M⁻¹ s⁻¹.

For the compound `CC[C@H](C)[C@H](NC(=O)C[C@@H]1O[C@@H]1[C@H](CC1CCCCC1)NC(=O)[C@H](CC(N)=O)NC(=O)c1ccc2ccccc2n1)C(=O)OC` [compound 5], the inhibition constant Ki came out at 92 nM, the kinact was 0.00333 s⁻¹ and the kinact/KI was 36700 M⁻¹ s⁻¹.

For the compound `COC(=O)C(NC(=O)C(CCC(N)=O)NC(=O)C[C@@H]1O[C@@H]1[C@H](Cc1ccccc1)NC(=O)[C@H](CC(N)=O)NC(=O)COc1cccc2ccccc12)C(C)C` (stereo partly drawn) [compound 16], the affinity corresponds to a Ki of 420 nM, the kinact is 0.0025 s⁻¹ and the kinact/KI was 6000 M⁻¹ s⁻¹.

In turn, `CC[C@H](C)[C@H](NC(=O)C[C@@H]1O[C@@H]1[C@H](Cc1ccccc1)NC(=O)[C@H](CC(N)=O)NC(=O)c1ccc2ccccc2n1)C(=O)N1CCOCC1` [compound 29] registered an inhibitory constant (Ki) of more than 10000 nM.

As to `CNC(=O)[C@@H](NC(=O)C[C@@H]1O[C@@H]1[C@H](Cc1ccccc1)NC(=O)[C@H](CC(N)=O)NC(=O)c1ccc2ccccc2n1)C(C)C` [compound 30], the inhibition constant (Ki) turned out to be 22 nM, the kinact is 0.00333 s⁻¹ and the kinact/KI was 183000 M⁻¹ s⁻¹.

Consider `CONC(=O)[C@@H](NC(=O)C[C@@H]1O[C@@H]1[C@H](Cc1ccccc1)NC(=O)[C@H](CC(N)=O)NC(=O)c1ccc2ccccc2n1)C(C)C` [compound 34], for which the inhibition constant (Ki) is 15 nM, the kinact was 0.00267 s⁻¹ and the kinact/KI is 183000 M⁻¹ s⁻¹.

For `CC[C@H](C)[C@H](NC(=O)C[C@@H]1O[C@@H]1[C@H](Cc1ccccc1)NC(=O)[C@@H](NC(=O)OCc1ccccn1)C(C)C)C(=O)OC` [compound 38, N-{N-L-[[N-(2-pyridylmethoxycarbonyl)-L-valinyl)-amino]-(4R,3S)-epoxy-6-phenyl-hexanoyl}-L-isoleucine methyl ester], the Ki is more than 10000 nM.

Turning to `CC(C)(C)OC(=O)N[C@@H](Cc1ccccc1)[C@H]1O[C@H]1CCc1ccccc1` [compound 51, 2-L-(t-butoxycarbonyl)amino-(3R,4S)-epoxy-1,6-diphenylhexane], the inhibition constant Ki was 7000 nM, the kinact is 0.000833 s⁻¹ and the kinact/KI was 118 M⁻¹ s⁻¹.

Consider `CC[C@H](C)[C@H](NC(=O)OCc1ccccc1)C(=O)N[C@@H](Cc1ccccc1)[C@H]1O[C@H]1CCc1ccccc1` [compound 54, 2-L-(N-benzyloxycarbonyl-L-isoleucinyl)amino-(3R,4S)-epoxy-1,6-diphenylhexane], for which the inhibition constant Ki was 1000 nM, the kinact is 0.0075 s⁻¹ and the kinact/KI was 7500 M⁻¹ s⁻¹.

As for `NC(=O)CC[C@H](NC(=O)OCc1ccccc1)C(=O)N[C@@H](Cc1ccccc1)[C@H]1O[C@H]1CCc1ccccc1` [compound 55, 2-L-(N-benzyloxycarbonyl-L-glutaminyl)amino-(3R,4S)-epoxy-1,6-diphenylhexane], the inhibition constant (Ki) was 2200 nM, the kinact was 0.00367 s⁻¹ and the kinact/KI was 1670 M⁻¹ s⁻¹.

Consider `CC(C)C[C@H](NC(=O)[C@H](CC(N)=O)NC(=O)OCc1ccccc1)[C@H]1O[C@H]1CCc1ccccc1` [compound 56, 5-L-(N-benzyloxycarbonyl-L-asparaginyl)amino-(3S,4R)-epoxy-7-methyl-1-phenyloctane], for which the Ki came to 44400 nM, the kinact is 0.00483 s⁻¹ and the kinact/KI is 108 M⁻¹ s⁻¹.

For `NC(=O)C[C@H](NC(=O)COc1ccccc1)C(=O)N[C@@H](Cc1ccccc1)[C@H]1O[C@H]1CCc1ccccc1` [compound 57, 2-L-(N-phenoxyacetyl-L-asparaginyl)amino-(3R,4S)-epoxy-1,6-diphenylhexane], the Ki is 12500 nM, the kinact is 0.0015 s⁻¹ and the kinact/KI is 120 M⁻¹ s⁻¹.

Turning to `NC(=O)C[C@H](NC(=O)COc1ccc(F)cc1F)C(=O)N[C@@H](Cc1ccccc1)[C@H]1O[C@H]1CCc1ccccc1` [compound 58, 2-L-[N-(2,4-difluoro)phenoxyacetyl-L-asparaginyl]amino-(3R,4S)-epoxy-1,6-diphenylhexane], the inhibitory constant (Ki) amounted to 3300 nM, the kinact was 0.0005 s⁻¹ and the kinact/KI is 152 M⁻¹ s⁻¹.

Consider `NC(=O)C[C@H](NC(=O)c1ccc2ccccc2[n+]1[O-])C(=O)N[C@@H](Cc1ccccc1)[C@H]1O[C@H]1CCc1ccccc1` [compound 64, 2-L-[N-(N-oxy)quinoline-2-yl-carbonyl-L-asparaginyl]amino-(3R,4S)-epoxy-1,6-diphenylhexane], for which the affinity, expressed as Ki, was 3600 nM; the kinact was 0.0015 s⁻¹; the kinact/KI is 417 M⁻¹ s⁻¹.

`NC(=O)C[C@H](NC(=O)[C@H](Cc1ccccc1)NC(=O)CCN1CCOCC1)C(=O)N[C@@H](Cc1ccccc1)[C@H]1O[C@H]1CCc1ccccc1` [compound 66, 2-L-[N-(N-morpholinepropanecarbonyl-L-phenylalanyl)-L-asparaginyl]amino-(3R,4S)-epoxy-1,6-diphenylhexane]: the inhibition constant (Ki) was 550 nM, the kinact is 0.0128 s⁻¹ and the kinact/KI was 23300 M⁻¹ s⁻¹.

For the compound `C[C@H](NC(=O)OCc1ccccc1)C(=O)N[C@@H](CC(N)=O)C(=O)N[C@@H](Cc1ccccc1)[C@H]1O[C@H]1CCc1ccccc1` [compound 67, 2-L-[N-(N-benzyloxycarbonyl-L-alanyl)-L-asparaginyl]amino-(3R,4S)-epoxy-1,6-diphenylhexane], the Ki was found to be 260 nM, the kinact is 0.00117 s⁻¹ and the kinact/KI was 4500 M⁻¹ s⁻¹.

`NC(=O)C[C@H](NC(=O)[C@H](Cc1ccccc1)NC(=O)OCc1ccccc1)C(=O)N[C@@H](Cc1ccccc1)[C@H]1O[C@H]1CCc1ccccc1` [compound 68, 2-L-[N-(N-benzyloxycarbonyl-L-phenylalanyl)-L-asparaginyl]amino-(3R,4S)-epoxy-1,6-diphenylhexane]: the Ki is 4000 nM, the kinact is 0.000667 s⁻¹ and the kinact/KI is 167 M⁻¹ s⁻¹.

On to `CC(C)CC[C@@H]1O[C@@H]1[C@H](Cc1ccccc1)NC(=O)[C@H](CC(N)=O)NC(=O)OCc1ccccc1` [compound 69, 2-L-(N-benzyloxycarbonyl-L-asparagyl)amino-(3R,4S)-epoxy-7-methyl-1-phenyloctane], for which the affinity corresponds to a Ki of 550 nM, the kinact is 0.001 s⁻¹ and the kinact/KI is 1830 M⁻¹ s⁻¹.

`O=C(O)CC[C@H](NC(=O)OCc1ccccc1)C(=O)NC[C@@H]1O[C@@H]1[C@H](Cc1ccccc1)NC(=O)[C@H](CCC(=O)O)NC(=O)OCc1ccccc1` [compound 74, 4S-1,4-bis[N-(N'-benzyloxycarbonyl-L-glutamic acidyl)amino]-5-phenyl-(2S,3R)-(Z)-epoxypentane] came in with a Ki of more than 10000 nM.

For the compound `CC(C)[C@H](NC(=O)OCc1cccnc1)C(=O)NC[C@@H]1O[C@@H]1[C@H](Cc1ccccc1)NC(=O)[C@@H](NC(=O)OCc1cccnc1)C(C)C` [compound 78], the affinity, expressed as Ki, was 720 nM; the kinact was 0.00167 s⁻¹; the kinact/KI was 2330 M⁻¹ s⁻¹.

Take `CC(C)[C@H](NC(=O)OCc1ccncc1)C(=O)NC[C@@H]1O[C@@H]1[C@H](Cc1ccccc1)NC(=O)[C@@H](NC(=O)OCc1ccncc1)C(C)C` [compound 79]: the Ki is 3000 nM, the kinact was 0.00167 s⁻¹ and the kinact/KI is 550 M⁻¹ s⁻¹.
